The values that follow come from PubChem BioAssay AID179 (DTP/NCI, 2004).

For orientation: EC50 means the concentration needed to bring the measured effect to its halfway point. Usually IC50 stands for the concentration that gives 50% inhibition. A lower IC50 goes with inhibition by little substance.

Calls of active or inactive are those of the source.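 The calls were made as follows: active = compounds giving half or more protection of infected cells from virus-caused growth loss, again on retest; inactive = the rest.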

The test system of this test is CEM cells HIV-1 protection, formazan growth assay. The test can be described thus: NCI AIDS Antiviral Assay. To be noted: for IC50: measured here: growth of uninfected CEM cells. The gist of the method:
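Protection of CEM cells against HIV-1 measured as cell growth via soluble formazan read-out, with five concentrations tested on both infected and uninfected cells; failure to protect may reflect toxicity.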

On to `C=C[C@H](C)[C@H](O)c1c(O)c2c(c3c(CCC)cc(=O)oc13)OC(C)(C)C=C2`, for which the EC50 is > 200 µM and the IC50 came to 49 µM.

Turning to `Clc1ccc(C2=NOC3C4CCC(C4)C23)cc1` (stereo unspecified), the outcome was inactive.

Take `N#CC(CCN1CCC(Nc2ccccc2)(c2nnnn2C2CCCCC2)CC1)(c1ccccc1)c1ccccc1`: the EC50 was > 200 µM and the IC50 is > 200 µM.

With `CC(=O)OCc1ncccc1C(OC(C)=O)OC(C)=O`, the EC50 is > 891 µM and the IC50 is > 891 µM.

As for `COC(=O)c1ccc(N/C=C(/C#N)c2ccsc2)cc1`, the EC50 was > 47.9 µM and the IC50 is > 47.9 µM.

Take `Cc1ccc(Nc2nc(NNC(=O)Cc3ccccc3)nc(NNC(=O)c3ccncc3)n2)cc1`: the EC50 was > 50.1 µM and the IC50 is > 50.1 µM.

Turning to `CN(C)c1ccc(/C=c2\sc3nnc(-c4cccnc4)n3c2=O)cc1`, the EC50 is > 20.9 µM and the IC50 is > 20.9 µM.

As for `S=C(N/N=C\C(=N/NC(=S)N1CCCCC1)c1ccccc1)N1CCCCC1`, the EC50 was > 200 µM and the IC50 is 3.8 µM.

Consider `Cc1ccc(C(=O)N(Cc2ccccc2)Cc2ccccc2)cc1N=NN(C)C`, for which the EC50 is > 9.77 µM and the IC50 was > 9.77 µM.

With `N#CC1=C(N)n2c(s/c(=C\c3ccc(Cl)cc3)c2=O)=C(c2nc3ccccc3[nH]2)C1c1ccc(Cl)cc1` (stereo unspecified), the EC50 is > 5.01 µM and the IC50 was > 5.01 µM.

With `O=C1C(=O)C(c2ccccc2)Oc2ccccc21` (stereo unspecified), the EC50 was > 200 µM and the IC50 came out at 25.1 µM.

Regarding `CCOC(=O)c1c(NS(=O)(=O)c2ccc(C)cc2)sc(C)c1-c1ccccc1`, the EC50 was > 200 µM and the IC50 turned out to be 21.9 µM.

With `O=Cc1cc([N+](=O)[O-])no1`, the result was inactive.

For `Cc1cc(C)c(NS(=O)c2cccc(Cl)c2)c(C)c1` (stereo unspecified), the EC50 was > 123 µM and the IC50 was > 123 µM.

Take `Cc1cccc(C)c1NC(=O)C1C(=O)N(c2c(C)cccc2C)C(=O)/C1=N\N` (stereo unspecified): the result was inactive.

As to `CC1=Cc2cccc(C)c2C(=O)C1=O`, the EC50 is > 38.9 µM and the IC50 turned out to be 6.46 µM.

With `CC(C)(O)c1cc2nc3ccccc3nc2n1CCO`, the EC50 is > 200 µM and the IC50 was > 200 µM.

`CCCCCCCCOCC(O)CO` (stereo unspecified): the outcome was inactive.

For `O=C1C2=C(c3ccccc31)C(c1cccc(Cl)c1)NC(=S)N2` (stereo unspecified), the EC50 is > 57.5 µM and the IC50 was determined as 35.5 µM.

With `Cc1ccc(NC(=O)C(=O)Cc2nc3ccccc3o2)c(C)c1`, the EC50 is > 12.3 µM and the IC50 was > 12.3 µM.

`CCOP(OCC)SSCn1nc2ccc3ccccc3n2c1=O`: the EC50 was > 200 µM and the IC50 is 70.8 µM.

In the case of `COc1cc(Br)cc2nc(-c3cccs3)oc12`, the EC50 was > 200 µM and the IC50 was 141 µM.

Take `O=C(O)c1ccc(CS(=O)(=O)c2ccccc2C(=O)O)cc1`: the EC50 was > 776 µM and the IC50 was > 776 µM.

`c1ccc([P+](c2ccccc2)(c2ccccc2)c2ccc([P+](c3ccccc3)(c3ccccc3)c3ccccc3)c3ccccc23)cc1`: the EC50 was > 200 µM and the IC50 turned out to be 110 µM.

Consider `N#C/C(=C\c1ccccc1)c1cccc(I)c1`, for which the EC50 is > 200 µM and the concentration for half-maximal inhibition (IC50) came out at 55 µM.

For `CCNc1cc2c(cc1O)CC[C@@H]1[C@@H]2CC[C@]2(C)[C@@H](O)CC[C@@H]12`, the EC50 is > 200 µM and the IC50 was found to be 3.89 µM.

On to `NC1=NN(c2ccccc2)C(=O)C1C(=O)C(=O)Nc1nccs1` (stereo unspecified), for which the EC50 was > 79.4 µM and the IC50 was > 79.4 µM.

As for `O=C1C2C3C=CC(C3)C2C2C3C=CC(C3)C12` (stereo unspecified), the EC50 is > 324 µM and the IC50 is > 324 µM.

For the compound `CC(C)NC(=O)OCc1c(COC(=O)NC(C)C)n(C)c2c1ccc1cc(Cl)c(Cl)cc12`, the EC50 was > 200 µM and the IC50 amounted to 2.95 µM.

Regarding `Cc1ccsc1/C=N/Nc1ncccn1`, the EC50 was > 200 µM and the IC50 was > 200 µM.

For the compound `O=C1CSC(c2c[nH]c3ccccc23)N1c1ccc(Cl)cc1` (stereo unspecified), the EC50 is > 110 µM and the IC50 is > 110 µM.

As to `COc1ccccc1/C=C/C(=O)c1sc(-c2cccnc2)nc1C`, the EC50 is > 15.5 µM and the IC50 was > 15.5 µM.

With `CC(c1ccccc1)/[N+]([O-])=C/c1ccccc1` (stereo unspecified), the EC50 was > 1120 µM and the IC50 is > 1120 µM.

As for `Oc1cc(O)c(Oc2cccc(O)c2O)c(O)c1`, the EC50 is > 1000 µM and the IC50 is 38.9 µM.

As for `COc1c(C)c2c(c(O)c1C/C=C(\C)CCC(=O)O)C(=O)OC2`, the EC50 was > 7.76 µM and the IC50 was 0.0355 µM.

On to `O=c1[nH]c(=O)n2n1C1C=CC2CC1`, for which the EC50 was > 200 µM and the IC50 is > 200 µM.

Consider `CC(=NCCN(CCN=C(C)c1c(O)cc(C)oc1=O)CCN=C(C)c1c(O)cc(C)oc1=O)c1c(O)cc(C)oc1=O`, for which the EC50 was > 200 µM and the IC50 was > 200 µM.

With `COC(=O)c1cc(C)ccc1/C=C1\Cc2c(C)cc(C)cc2C1=O`, the result was inactive.

`CN1C(=O)CC2(C)c3cc(C=O)ccc3N(C)C12` (stereo unspecified): the outcome was inactive.

Regarding `O=C(O)c1cc(S(=O)(=O)N=NC=C2c3ccccc3N(O)c3ccccc32)ccc1O`, the result was inactive.

On to `CC1=C(C(=O)Nc2ccccc2)C(c2ccccc2Cl)C(C(=O)Nc2ccccc2)=C(C)N1`, for which the result was inactive.

For the compound `CC1(C)CC2(C)CC1CC2O` (stereo unspecified), the EC50 was > 200 µM and the IC50 is > 200 µM.

Regarding `Nc1cc(=O)[nH][nH]1`, the EC50 is > 200 µM and the IC50 is > 200 µM.

Take `C[n+]1cc(C(O)c2ccc3c(c2)OCO3)c2ccccc2c1` (stereo unspecified): the EC50 is > 100 µM and the IC50 is 29.5 µM.

`Fc1c(F)c(F)c(S)c(F)c1F`: the outcome was active.

As for `C=Cc1c(Cl)nc(C)c(C)c1-c1ccc(OC)c(OC)c1OCc1ccccc1`, the EC50 is > 200 µM and the half-maximal inhibitory concentration (IC50) came to 25.1 µM.

For the compound `CCOc1ccccc1NC(=O)C(=O)c1c(O)c2ccc(O)cc2oc1=O`, the EC50 was > 490 µM and the IC50 stood at 182 µM.

On to `O=c1[nH]cnc2c1ncn2C1CC(O)C(CO)(C(F)(F)F)O1` (stereo unspecified), for which the EC50 is > 200 µM and the IC50 amounted to 132 µM.

Take `CC(CCC(=O)O)[C@H]1CCC2[C@@H]3CC[C@@H]4CC(O)CC[C@]4(C)C3CC[C@@]21C` (stereo partly specified): the EC50 is > 200 µM and the IC50 is > 100 µM.

Turning to `COc1cc(-c2ccc(Nc3ccccc3C(=O)O)c(OC)c2)ccc1Nc1ccccc1C(=O)O`, the EC50 was > 200 µM and the IC50 is 0.692 µM.

On to `COc1ccc(C(C(N)=O)N2CCCCC2)cc1` (stereo unspecified), for which the EC50 was > 200 µM and the IC50 was > 200 µM.

Take `CCOC(OC1=C(C#N)CCCC1)C(CC)[Se]c1ccccc1` (stereo unspecified): the EC50 is > 132 µM and the half-inhibitory concentration (IC50) worked out at 67.6 µM.

As to `CCCCCC=C(c1cc(C(=O)OC)c(OC)c(C(F)(F)F)c1)c1cc(C(=O)OC)c(OC)c(C(F)(F)F)c1`, the EC50 was > 200 µM and the IC50 was 105 µM.

In the case of `O=C(/C=C/c1ccc(O)c(O)c1)NCCOC(=O)/C=C/c1ccc(O)c(O)c1`, the EC50 is > 200 µM and the IC50 turned out to be 8.51 µM.

As to `Cc1c2ccccc2nc(CSOCCO)[n+]1[O-]`, the EC50 was > 200 µM and the IC50 was > 200 µM.
